# The supplement of paper PMC10307832
# Assays:
# Assay in all cases: relative viability (nuclei count vs DMSO), 5 days (fraction); higher = more cells survive
# NCI-H727 = system: NCI-H727
# Procedure, shortened: (§1)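 Relative viability divides the nuclei count in treated wells by that in vehicle wells. Lung cancer cell lines were seeded in 1536-well plates, dosed by pin tool the next day, and fixed and stained after 5 days in one step with final 0.05% Triton X-100, 1% formaldehyde and 1 ug/ml Hoechst. Dosing was a single drug or a fixed anchor-drug dose plus five library-drug doses (not always all listed) in √10 steps, and values are medians of duplicate plates imaged at 4×.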
# LOU-NH91 = system: LOU-NH91
# Procedure, shortened: as §1
# NCI-H23 = system: NCI-H23
# Procedure, shortened: as §1
# NCI-H650 = system: NCI-H650
# Procedure, shortened: as §1
# NCI-H2405 = system: NCI-H2405
# Procedure, shortened: as §1
# ChaGo-K-1 = system: ChaGo-K-1
# Procedure, shortened: as §1
# 201T = system: 201T
# Procedure, shortened: as §1
# EKVX = system: EKVX
# Procedure, shortened: as §1
# NCI-H2228 = system: NCI-H2228
# Procedure, shortened: as §1
# NCI-H2126 = system: NCI-H2126
# Procedure, shortened: as §1
# SW 900 = system: SW 900
# Procedure, shortened: as §1
# NCI-H3122 = system: NCI-H3122
# Procedure, shortened: as §1
# H3255 = system: H3255
# Procedure, shortened: as §1
# COR-L 105 = system: COR-L 105
# Procedure, shortened: as §1
# NCI-H661 = system: NCI-H661
# Procedure, shortened: as §1
# SK-LU-1 = system: SK-LU-1
# Procedure, shortened: as §1
# HARA = system: HARA
# Procedure, shortened: as §1
# NCI-H1975 = system: NCI-H1975
# Procedure, shortened: as §1
# PC-3 [JPC-3] = system: PC-3 [JPC-3]
# Procedure, shortened: as §1
# HCC-827 = system: HCC-827
# Procedure, shortened: as §1
# LCLC-103H = system: LCLC-103H
# Procedure, shortened: as §1
# NCI-H596 = system: NCI-H596
# Procedure, shortened: as §1
# HOP-62 = system: HOP-62
# Procedure, shortened: as §1
compound,measurement,setting,value
CN1CCN(CCOc2cc(OC3CCOCC3)c3c(Nc4c(Cl)ccc5c4OCO5)ncnc3c2)CC1 [Saracatinib] + COc1cccc2cc(-c3nc([C@H]4CC[C@H](C(=O)O)CC4)n4ncnc(N)c34)[nH]c12 [OSI-027] (partner 0.5 µM),relative viability,NCI-H727; first compound 0.02 µM,0.496
same,relative viability,NCI-H727; first compound 0.2 µM,0.463
same,relative viability,NCI-H727; first compound 0.6325 µM,0.529
same,relative viability,NCI-H727; first compound 2 µM,0.485
same,relative viability,LOU-NH91; first compound 0.02 µM,0.756
same,relative viability,LOU-NH91; first compound 0.2 µM,0.556
same,relative viability,LOU-NH91; first compound 0.6325 µM,0.544
same,relative viability,LOU-NH91; first compound 2 µM,0.413
same,relative viability,NCI-H23; first compound 0.02 µM,0.649
same,relative viability,NCI-H23; first compound 0.2 µM,0.425
same,relative viability,NCI-H23; first compound 0.6325 µM,0.659
same,relative viability,NCI-H23; first compound 2 µM,0.503
same,relative viability,NCI-H650; first compound 0.02 µM,0.602
same,relative viability,NCI-H650; first compound 0.2 µM,0.504
same,relative viability,NCI-H650; first compound 0.6325 µM,0.524
same,relative viability,NCI-H650; first compound 2 µM,0.493
same,relative viability,NCI-H2405; first compound 0.02 µM,0.647
same,relative viability,NCI-H2405; first compound 0.2 µM,0.62
same,relative viability,NCI-H2405; first compound 0.6325 µM,0.649
same,relative viability,NCI-H2405; first compound 2 µM,0.38
same,relative viability,ChaGo-K-1; first compound 0.02 µM,0.707
same,relative viability,ChaGo-K-1; first compound 0.2 µM,0.533
same,relative viability,ChaGo-K-1; first compound 0.6325 µM,0.519
same,relative viability,ChaGo-K-1; first compound 2 µM,0.524
same,relative viability,201T; first compound 0.02 µM,0.725
same,relative viability,201T; first compound 0.2 µM,0.53
same,relative viability,201T; first compound 0.6325 µM,0.752
same,relative viability,201T; first compound 2 µM,0.445
same,relative viability,EKVX; first compound 0.02 µM,0.679
same,relative viability,EKVX; first compound 0.6325 µM,0.746
same,relative viability,EKVX; first compound 2 µM,0.456
same,relative viability,NCI-H2228; first compound 0.02 µM,0.719
same,relative viability,NCI-H2228; first compound 0.2 µM,0.343
same,relative viability,NCI-H2228; first compound 0.6325 µM,0.529
same,relative viability,NCI-H2228; first compound 2 µM,0.381
same,relative viability,NCI-H2126; first compound 0.02 µM,0.8
same,relative viability,NCI-H2126; first compound 0.2 µM,0.672
same,relative viability,NCI-H2126; first compound 0.6325 µM,0.662
same,relative viability,NCI-H2126; first compound 2 µM,0.589
same,relative viability,SW 900; first compound 0.02 µM,0.616
same,relative viability,SW 900; first compound 0.2 µM,0.559
same,relative viability,SW 900; first compound 0.6325 µM,0.575
same,relative viability,SW 900; first compound 2 µM,0.443
same,relative viability,NCI-H3122; first compound 0.02 µM,0.957
same,relative viability,NCI-H3122; first compound 0.2 µM,0.357
same,relative viability,NCI-H3122; first compound 0.6325 µM,0.968
same,relative viability,NCI-H3122; first compound 2 µM,0.718
same,relative viability,H3255; first compound 0.02 µM,0.587
same,relative viability,H3255; first compound 0.2 µM,0.589
same,relative viability,H3255; first compound 0.6325 µM,0.542
same,relative viability,H3255; first compound 2 µM,0.284
same,relative viability,COR-L 105; first compound 0.02 µM,0.837
same,relative viability,COR-L 105; first compound 0.2 µM,0.628
same,relative viability,COR-L 105; first compound 0.6325 µM,0.566
same,relative viability,COR-L 105; first compound 2 µM,0.221
same,relative viability,NCI-H661; first compound 0.02 µM,0.707
same,relative viability,NCI-H661; first compound 0.2 µM,0.655
same,relative viability,NCI-H661; first compound 0.6325 µM,0.502
same,relative viability,NCI-H661; first compound 2 µM,0.467
same,relative viability,SK-LU-1; first compound 0.02 µM,0.33
same,relative viability,SK-LU-1; first compound 0.2 µM,0.28
same,relative viability,SK-LU-1; first compound 0.6325 µM,0.245
same,relative viability,SK-LU-1; first compound 2 µM,0.172
same,relative viability,HARA; first compound 0.02 µM,0.544
same,relative viability,HARA; first compound 0.2 µM,0.263
same,relative viability,HARA; first compound 0.6325 µM,0.483
same,relative viability,HARA; first compound 2 µM,0.205
same,relative viability,NCI-H1975; first compound 0.02 µM,0.678
same,relative viability,NCI-H1975; first compound 0.2 µM,0.585
same,relative viability,NCI-H1975; first compound 0.6325 µM,0.686
same,relative viability,NCI-H1975; first compound 2 µM,0.403
same,relative viability,PC-3 [JPC-3]; first compound 0.02 µM,0.793
same,relative viability,PC-3 [JPC-3]; first compound 0.2 µM,0.718
same,relative viability,PC-3 [JPC-3]; first compound 0.6325 µM,0.61
same,relative viability,PC-3 [JPC-3]; first compound 2 µM,0.436
same,relative viability,HCC-827; first compound 0.02 µM,0.791
same,relative viability,HCC-827; first compound 0.2 µM,0.564
same,relative viability,HCC-827; first compound 0.6325 µM,0.259
same,relative viability,HCC-827; first compound 2 µM,0.122
same,relative viability,LCLC-103H; first compound 0.02 µM,0.481
same,relative viability,LCLC-103H; first compound 0.2 µM,0.427
same,relative viability,LCLC-103H; first compound 0.6325 µM,0.505
same,relative viability,LCLC-103H; first compound 2 µM,0.459
same,relative viability,NCI-H596; first compound 0.02 µM,0.721
same,relative viability,NCI-H596; first compound 0.2 µM,0.429
same,relative viability,NCI-H596; first compound 0.6325 µM,0.623
same,relative viability,NCI-H596; first compound 2 µM,0.403
same,relative viability,HOP-62; first compound 0.02 µM,0.836
same,relative viability,HOP-62; first compound 0.2 µM,0.796
same,relative viability,HOP-62; first compound 0.6325 µM,0.794
same,relative viability,HOP-62; first compound 2 µM,0.773
